Measured values reported in ChEMBL document CHEMBL3639243, “Oxadiazole derivative having endothelial lipase inhibitory activity” (2014).

Target: T1, Endothelial lipase (Homo sapiens, UniProt Q9Y5X9)
T1 sequence (Q9Y5X9 whole entry): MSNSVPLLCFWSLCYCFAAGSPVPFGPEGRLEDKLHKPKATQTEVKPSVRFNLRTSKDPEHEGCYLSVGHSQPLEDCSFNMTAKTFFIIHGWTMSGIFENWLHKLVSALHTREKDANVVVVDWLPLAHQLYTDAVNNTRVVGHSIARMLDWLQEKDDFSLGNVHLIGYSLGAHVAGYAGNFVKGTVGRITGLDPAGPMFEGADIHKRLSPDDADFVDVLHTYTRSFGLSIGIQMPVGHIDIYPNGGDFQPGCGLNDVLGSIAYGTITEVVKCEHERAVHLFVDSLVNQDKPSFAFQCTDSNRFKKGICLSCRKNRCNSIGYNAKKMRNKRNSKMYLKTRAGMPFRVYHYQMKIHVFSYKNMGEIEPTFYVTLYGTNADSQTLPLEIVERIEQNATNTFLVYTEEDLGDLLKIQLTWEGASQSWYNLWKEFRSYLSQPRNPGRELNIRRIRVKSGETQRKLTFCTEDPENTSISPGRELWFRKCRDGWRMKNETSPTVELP
Assay: Inhibition Assay: After the present compound dissolved in DMSO was added to become 0.5% DMSO to the reaction buffer consisting of 20 mM tris hydrochloric acid (pH7.4), bovine serum albumin (0.5%), calcium chloride (4 mM), sodium chloride (150 mM) and human HDL (2 mg/ml), the EL enzyme was added (total volume was 20 μl). After 4-hour reaction at 37 C., non-esterified fatty acid (NEFA) generated from HDL by EL was measured with a commercially available assay kit and the amount of NEFA was used as an index of enzyme activity. Considering the enzyme activity without the inhibitor as a control value, the inhibition rate of each concentration of the present compound was calculated, and 50% inhibitory concentration (IC50 value) was calculated from an inhibition curve.

N#CC1(NC(=O)Cc2nnc(Cc3nc4ccc(-c5ccc(Cl)s5)c(F)c4s3)o2)CC1
IC50: 14 nM
